From patent US9376382B2, “N-substituted isopropyldimethyl azulene sulfonamide derivatives, and preparation method and use thereof” (Sichuan Guokang Pharmaceutical Co., Ltd., priority 2011, dated 2016)

What was measured:
[1] = test system: ethanol-induced gastric ulcer; assay: Anhydrous ethanol-induced gastric ulcer in mice; assay type: in vivo, Kunming mice; design: key to Gastri ulcer score (X ± SD) / Ulcer score (X ± SD) / Gastric ulcer score (X ± SD): summed pathology score: congestion 1, hemorrhage/erosion 1, linear erosion 3; conditions: for Inhibition rate (%): inhibition rate of ulcer vs model group; for Gastric ulcer score (X ± SD) / Gastri ulcer score (X ± SD) / Ulcer score (X ± SD): mice, intragastric once a day for five days; for anti-gastric ulcer effect in words: ethanol-induced gastric ulcer in mice, compared to the model group; for Gastri ulcer score (X ± SD): dose equimolar to azulene sulfonate sodium 3.0 mg/kg (Omeprazole 13.4 mg/kg), model group 13.00 ± 1.77; for Ulcer score (X ± SD): equimolar doses, model group 20.33 ± 12.23
Experimental: Kunming mice, half male and half female, weighing 18-22 g, provided by the West China Animal Center
(1) Azulene sodium sulphonate was added with 0.5% CMC to prepare a suspension with concentration of 0.15 mg/ml.
(2) 20 mg of Omeprazole was added with 0.5% CMC to prepare a suspension with concentration of 0.67 mg/ml.
Kunming mice were randomly grouped according the body weight (one model control group or negative control group, one Omeprazole control group or positive control group, one Azulene sodium sulphonate control group, twelve test drug groups), eight mice for each group, half male and half female.
Administration: Model control group was administrated intragastrically with 0.5% CMC solution at a dose of 0.4 ml/20 g; Omeprazole control group was administrated intragastrically with Omeprazole at a dose of 0.4 ml/20 g, Azulene sodium sulphonate control group and each test drug groups were administrated intragastrically with their respective drug at a dose of 0.4 ml/20 g. The mice in each group were administrated once a day for successive five days. 0.5 hour after final administration, the mice in each group were administrated intragastrically with 0.5 ml of anhydrous ethanol, one hour later the mice were executed and dissected, and their stomaches were taken, washed and scored according to the pathological degree. For local congestion and rubefaction, score was 1; for petechial hemorrhage or erosion, score was respectively 1, for each linear erosion, score was 3. Statistical analysis was performed. Ulcer scores were calculated, significant differences between the groups were compared and the inhibition rates of ulcer were calculated [Inhibition rate of ulcer=(ulcer score of model group−ulcer score of drug administration group)/ulcer score of model group].

[2] = High-temperature test (60° C.), stability study; assay type: physicochemical; conditions: open-stored; for Appearance Day 5: Day 5, cell wraps; for Appearance Day 5 / Appearance Day 10: first line given; for Appearance Day 10: Day 10, cell wraps;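 as to all read-outs here: samples kept uncovered in dishes at 60 °C for up to 10 days and examined on Day 5 and Day 10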
Experimental: (§1) The test samples were open-stored in culture dishes at 60° C. for 10 days, and taken and detected on Day 5 and Day 10. • The characteristics, especially colour change were observed. • Melting points were measured by automatic melting point apparatus. • By self-reflection, TLC is used to observe whether the spot numbers were increased after 5 days and 10 days.

[3] = High humidity test (25° C., relative humidity 90% ± 5%), stability study; assay type: physicochemical; conditions: RH 90% ± 5%; for Appearance Day 0: Day 0, cell wraps; for Appearance Day 0 / Appearance Day 5 / Appearance Day 10: first line given; for Appearance Day 5: Day 5, cell wraps; for Appearance Day 10: Day 10, cell wraps;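 as to all read-outs here: samples kept uncovered in sealed humidity desiccators, appearance judged mainly by colour change, melting point on an automatic apparatus, TLC checked for extra spots versus start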
Experimental: (§2) The test samples were open-stored in closed constant humidity desiccators under the condition of 25° C. and relative humidity of 90%+5% for 10 days, and taken and detected on Day 5 and Day 10. Meanwhile, each sample was accurately weighed before and after test.
The characteristics, especially colour change was observed.
Melting points were measured by an automatic melting point apparatus.
By self-reflection, TLC is used to observe whether the spot numbers were increased after 5 days and 10 days.

[4] = Intense light irradiation test (4500LX ± 500LX), stability study; assay type: physicochemical; conditions: for Appearance Day 0: Day 0, cell wraps; for Appearance Day 0 / Appearance Day 5 / Appearance Day 10: first line given; for Appearance Day 5: Day 5, cell wraps; for Appearance Day 10: Day 10, cell wraps
Experimental: (§3) The test samples were open-stored in “adjustable light boxes” under the conditions of illumination of 4500LX±500LX for 10 days, and taken and detected on Day 5 and Day 10 with regards to dry items. • The characteristics, especially colour change was observed. • Melting points were measured by an automatic melting point apparatus. • By self-reflection, TLC is used to observe whether the spot numbers were increased after 5 days and 10 days.

[5] = Stability studies (light, humidity, heat), overall comparison; conditions: for light, humidity and heat stability in words: summary of high-temperature, high humidity and intense light tests
Experimental: as §1, §2, §3

[6] = Table 6, model group 17.86 ± 8.43
[7] = Table 7, model group 19.71 ± 7.18

## COC(=O)C(Cc1c[nH]c2ccccc12)NS(=O)(=O)C1=C2C(C)=C=C=C(C(C)C)C=C2C(C)=C1 (stereo not shown) [5d, N-2-(indol-3-methyl)-2-methoxyformyl methylene-3′,8′-dimethyl-5′-isopropyl azulene-1′-sulfonamide]
[1]; Table 6
  Inhibition rate (%): 51.23%
[1]; [6]
  Gastric ulcer score (X ± SD): 8.71 ± 4.93
[1]
  anti-gastric ulcer effect in words: stronger and more significant anti-gastric ulcer capability
other
  melting point: 178 to 180 °C

## Cc1cc(S(=O)(=O)NC(Cc2c[nH]c3ccccc23)C(=O)O)c2c(C)ccc(C(C)C)cc1-2 (stereo not shown) [6c, N-2-(indol-3-methyl)-2-carboxymethylene-3′,8′-dimethyl-5′-isopropyl azulene-1′-sulfonamide]
[1]; Table 7
  Inhibition rate (%): 55.05%
[1]; [7]
  Gastric ulcer score (X ± SD): 8.86 ± 4.81
[1]
  anti-gastric ulcer effect in words: stronger and more significant anti-gastric ulcer capability

## Cc1cc(S(=O)(=O)NC(C)C)c2c(C)ccc(C(C)C)cc1-2 [4c, N,5-diisopropyl-3,8-dimethyl-1-azulene sulfonamide]
[2]
  Melting point Day 0: 127.5-130.0 °C
  Spot numbers on TLC Day 0: 1
  Melting point Day 5: 127.5-129.5 °C
  Spot numbers on TLC Day 5: 1
  Appearance Day 5: purple
  Melting point Day 10: 127.5-129.5 °C
  Spot numbers on TLC Day 10: 1
  Appearance Day 10: purple
[3]
  Melting point Day 0: 127.5-130.0 °C
  Spot numbers on TLC Day 0: 1
  hygroscopic rate (%) Day 0: 0.95%
  Appearance Day 0: purple
  Melting point Day 5: 128.0-130.5 °C
  Spot numbers on TLC Day 5: 1
  hygroscopic rate (%) Day 5: 1.32%
  Appearance Day 5: purple
  Melting point Day 10: 128.0-130.5 °C
  Spot numbers on TLC Day 10: 1
  Appearance Day 10: purple
[4]
  Melting point Day 0: 127.5-130.0 °C
  Spot numbers on TLC Day 0: 1
  Appearance Day 0: purple
  Melting point Day 5: 127.0-129.5 °C
  Spot numbers on TLC Day 5: 1
  Appearance Day 5: purple
  Melting point Day 10: 125.0-126.5 °C
  Spot numbers on TLC Day 10: 2
  Appearance Day 10: purple
other
  melting point: 128 to 130 °C
[5]
  light, humidity and heat stability in words: better light, humidity and heat stability than azulene sulfonate sodium

## Cc1ccc(NS(=O)(=O)c2cc(C)c3cc(C(C)C)ccc(C)c2-3)cc1 [4g, N-(4-methylphenyl)-3,8-dimethyl-5-isopropyl-1-azulene sulfonamide]
[2]
  Melting point Day 0: 146.0-148.5 °C
  Spot numbers on TLC Day 0: 1
  Melting point Day 5: 146.0-148.0 °C
  Spot numbers on TLC Day 5: 1
  Appearance Day 5: purple
  Melting point Day 10: 145.5-147.5 °C
  Spot numbers on TLC Day 10: 1
  Appearance Day 10: purple
[3]
  Melting point Day 0: 146.0-148.5 °C
  Spot numbers on TLC Day 0: 1
  hygroscopic rate (%) Day 0: 1.56%
  Appearance Day 0: purple
  Melting point Day 5: 145.5-148.5 °C
  Spot numbers on TLC Day 5: 1
  hygroscopic rate (%) Day 5: 2.01%
  Appearance Day 5: purple
  Melting point Day 10: 145.5-148.5 °C
  Spot numbers on TLC Day 10: 1
  Appearance Day 10: purple
[4]
  Melting point Day 0: 146.0-148.5 °C
  Spot numbers on TLC Day 0: 1
  Appearance Day 0: purple
  Melting point Day 5: 145.0-147.5 °C
  Spot numbers on TLC Day 5: 1
  Appearance Day 5: purple
  Melting point Day 10: 143.5-147.5 °C
  Spot numbers on TLC Day 10: 2
  Appearance Day 10: purple
other
  melting point: 146 to 148 °C
[5]
  light, humidity and heat stability in words: better light, humidity and heat stability than azulene sulfonate sodium

## COc1ccc2[nH]c([S+]([O-])Cc3ncc(C)c(OC)c3C)nc2c1 (stereo not shown) [Omeprazole, reference compound]
[1]; Table 4
  Inhibition rate (%): 47.23%
  Gastri ulcer score (X ± SD): 6.86 ± 3.77
[1]; Table 5
  Inhibition rate (%): 36.74%
  Ulcer score (X ± SD): 12.86 ± 11.89
[1]; Table 6
  Inhibition rate (%): 59.41%
[1]; [6]
  Gastric ulcer score (X ± SD): 7.25 ± 7.15
[1]; Table 7
  Inhibition rate (%): 58.25%
[1]; [7]
  Gastric ulcer score (X ± SD): 8.23 ± 3.18

## CC1=C=C=C(C(C)C)C=C2C(C)=CC(S(=O)(=O)NCC(=O)N/N=C/c3cccs3)=C12 [8a]
[1]; Table 7
  Inhibition rate (%): 48.96%
[1]; [7]
  Gastric ulcer score (X ± SD): 10.06 ± 5.60
[1]
  anti-gastric ulcer effect in words: stronger and more significant anti-gastric ulcer capability
other
  melting point: 69 to 70 °C

## CC1=C=C=C(C(C)C)C=C2C(C)=CC(S(=O)(=O)NC(CC(C)C)C(=O)O)=C12 (stereo not shown) [6b, N-2-(2-methylpropyl)-2-carboxymethylene-3′,8′-dimethyl-5′-isopropyl azulene-1′-sulfonamide]
[1]; Table 7
  Inhibition rate (%): 50.94%
[1]; [7]
  Gastric ulcer score (X ± SD): 9.67 ± 4.25
[1]
  anti-gastric ulcer effect in words: stronger and more significant anti-gastric ulcer capability
other
  melting point: 44 to 46 °C

## Cc1cc(S(=O)(=O)[O-])c2c(C)ccc(C(C)C)cc1-2.[Na+] [Azulene sulfonate sodium, 3,8-dimethyl-5-isopropyl azulene-1-sodium sulphonate, reference compound]
[2]
  Melting point Day 0: 104.0-106.0 °C
  Spot numbers on TLC Day 0: 1
  Melting point Day 5: 102.5-104.0 °C
  Spot numbers on TLC Day 5: 2
  Appearance Day 5: blue flake
  Melting point Day 10: 98.5-100.0 °C
  Spot numbers on TLC Day 10: 4
  Appearance Day 10: light blue
[3]
  Melting point Day 0: 104.0-106.0 °C
  Spot numbers on TLC Day 0: 1
  hygroscopic rate (%) Day 0: 2.16%
  Appearance Day 0: dark
  Melting point Day 5: 100.5-105.5 °C
  Spot numbers on TLC Day 5: 3
  hygroscopic rate (%) Day 5: 3.69%
  Appearance Day 5: blue
  Melting point Day 10: 98.5-102.0 °C
  Spot numbers on TLC Day 10: 3
  Appearance Day 10: light
[4]
  Melting point Day 0: 104.0-106.0 °C
  Spot numbers on TLC Day 0: 1
  Appearance Day 0: dark blue
  Melting point Day 5: 102.5-105.5 °C
  Spot numbers on TLC Day 5: 3
  Appearance Day 5: blue
  Melting point Day 10: 98.54-103.5 °C
  Spot numbers on TLC Day 10: >4
  Appearance Day 10: light
[1]; Table 4
  Inhibition rate (%): 45.08%
  Gastri ulcer score (X ± SD): 7.14 ± 4.73
[1]; Table 5
  Inhibition rate (%): 32.56%
  Ulcer score (X ± SD): 13.71 ± 10.75
[1]; Table 6
  Inhibition rate (%): 52.80%
[1]; [6]
  Gastric ulcer score (X ± SD): 8.43 ± 5.74
[1]; Table 7
  Inhibition rate (%): 52.16%
[1]; [7]
  Gastric ulcer score (X ± SD): 9.43 ± 5.74
[5]; background statement, found by experiments
  light stability and heat stability in words: poor light stability and heat stability

## COC(=O)CCNS(=O)(=O)C1=C2C(C)=C=C=C(C(C)C)C=C2C(C)=C1 [5h, N-3-methoxyformylethyl-3′,8′-dimethyl-5′-isopropyl azulene-1′-sulfonamide]
[1]; Table 6
  Inhibition rate (%): 50.78%
[1]; [6]
  Gastric ulcer score (X ± SD): 8.79 ± 4.38
[1]
  anti-gastric ulcer effect in words: stronger and more significant anti-gastric ulcer capability
other
  melting point: 94 to 96 °C
